In US20240043404A1 (AbbVie Inc., priority 2009, published 2024):

Tested on: RS4;11 cells
Assay: RS4;11 cell viability assay (CellTiter Glo);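 further: acute lymphoblastic leukemia line RS4,11, EC50 derived from percentage of viable cells after treatment relative to untreated controls, cell killing taken as a measure of Bcl-2 inhibition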
Assay type: cell-based, human
Conditions: Homo sapiens, RS4-11, 48 h, 50,000 cells per well, 10% human serum, 48 hours; read-out: RS4; 11 EC50 Values
Protocol: The acute lymphoblastic leukemia (ALL) cell line RS4;11 was used as the primary human cell line to assess the cellular activity of Bcl-2 selective agents in vitro and their efficacy in vivo.
Cell cytotoxicity EC50 values were assessed using CellTiter Glo (Promega) according to the manufacturer's recommendations. The EC50 values were determined as a percentage of viable cells following treatment compared to the untreated control cells.

Row | EC50 [nM] | Structure (SMILES)
1 | 76.3 | CC1(C)CCC(CN2CCN(c3ccc(C(=O)NS(=O)(=O)c4ccc(NCC5COCCN5C5CCOCC5)c([N+](=O)[O-])c4)c(Oc4cnc5[nH]ccc5c4)c3)CC2)=C(c2ccc(Cl)cc2)C1 (stereo not shown) [Example 169, 4-(4-{[2-(4-chlorophenyl)-4,4-dimethylcyclohex-1-en-1-yl]methyl}piperazin-1-yl)-N-[(3-nitro-4-{[(4-tetrahydro-2H-pyran-4-ylmorpholin-3-yl)methyl]amino}phenyl)sulfonyl]-2-(1H-pyrrolo[2,3-b]pyridin-5-yloxy)benzamide]
2 | 125 | CC1(C)CCC(CN2CCN(c3ccc(C(=O)NS(=O)(=O)c4ccc(NCC5COCCN5C5CCC5)c([N+](=O)[O-])c4)c(Oc4cnc5[nH]ccc5c4)c3)CC2)=C(c2ccc(Cl)cc2)C1 (stereo not shown) [Example 170, 4-(4-{[2-(4-chlorophenyl)-4,4-dimethylcyclohex-1-en-1-yl]methyl}piperazin-1-yl)-N-[(4-{[(4-cyclobutylmorpholin-3-yl)methyl]amino}-3-nitrophenyl)sulfonyl]-2-(1H-pyrrolo[2,3-b]pyridin-5-yloxy)benzamide]
3 | 52.7 | CC1(C)CCC(CN2CCN(c3ccc(C(=O)NS(=O)(=O)c4ccc(NCC5COCCN5C5CCOC5)c([N+](=O)[O-])c4)c(Oc4cnc5[nH]ccc5c4)c3)CC2)=C(c2ccc(Cl)cc2)C1 (stereo not shown) [Example 171, 4-(4-{[2-(4-chlorophenyl)-4,4-dimethylcyclohex-1-en-1-yl]methyl}piperazin-1-yl)-N-[(3-nitro-4-{[(4-tetrahydrofuran-3-ylmorpholin-3-yl)methyl]amino}phenyl)sulfonyl]-2-(1H-pyrrolo[2,3-b]pyridin-5-yloxy)benzamide]
4 | 20.5 | CC1(C)CCC(CN2CCN(c3ccc(C(=O)NS(=O)(=O)c4ccc(NCC5CCN(C(CF)CF)CC5)c([N+](=O)[O-])c4)c(Oc4cnc5[nH]ccc5c4)c3)CC2)=C(c2ccc(Cl)cc2)C1 [Example 172, 4-(4-{[2-(4-chlorophenyl)-4,4-dimethylcyclohex-1-en-1-yl]methyl}piperazin-1-yl)-N-({4-[({1-[2-fluoro-1-(fluoromethyl)ethyl]piperidin-4-yl}methyl)amino]-3-nitrophenyl}sulfonyl)-2-(1H-pyrrolo[2,3-b]pyridin-5-yloxy)benzamide]
5 | 5.16 | CC1(C)CCC(CN2CCN(c3ccc(C(=O)NS(=O)(=O)c4ccc(OCC5(F)CCN(C6CC6)CC5)c([N+](=O)[O-])c4)c(Oc4cnc5[nH]ccc5c4)c3)CC2)=C(c2ccc(Cl)cc2)C1 [Example 173, 4-(4-{[2-(4-chlorophenyl)-4,4-dimethylcyclohex-1-en-1-yl]methyl}piperazin-1-yl)-N-({4-[(1-cyclopropyl-4-fluoropiperidin-4-yl)methoxy]-3-nitrophenyl}sulfonyl)-2-(1H-pyrrolo[2,3-b]pyridin-5-yloxy)benzamide]
6 | 126 | COc1ccc(CNc2ccc(S(=O)(=O)NC(=O)c3ccc(N4CCN(CC5=C(c6ccc(Cl)cc6)CC(C)(C)CC5)CC4)cc3Oc3cnc4[nH]ccc4c3)cc2[N+](=O)[O-])cc1 [Example 174, 4-(4-{[2-(4-chlorophenyl)-4,4-dimethylcyclohex-1-en-1-yl]methyl}piperazin-1-yl)-N-({4-[(4-methoxybenzyl)amino]-3-nitrophenyl}sulfonyl)-2-(1H-pyrrolo[2,3-b]pyridin-5-yloxy)benzamide]
7 | > 1000 | CC1(C)CCC(CN2CCN(c3ccc(C(=O)NS(=O)(=O)c4ccc(NCc5cccc(OC(F)(F)F)c5)c([N+](=O)[O-])c4)c(Oc4cnc5[nH]ccc5c4)c3)CC2)=C(c2ccc(Cl)cc2)C1 [Example 175, 4-(4-{[2-(4-chlorophenyl)-4,4-dimethylcyclohex-1-en-1-yl]methyl}piperazin-1-yl)-N-[(3-nitro-4-{[3-(trifluoromethoxy)benzyl]amino}phenyl)sulfonyl]-2-(1H-pyrrolo[2,3-b]pyridin-5-yloxy)benzamide]
